Biological target: human F508del-CFTR (Homo sapiens, UniProt P13569, DEL508-508)
Assay: F508del-CFTR cell surface expression (corrector activity), DiscoveRx ß-galactosidase complementation chemiluminescence assay in recombinant U2OS cell line;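 note: U2OS cells co-expressing ProLink-tagged F508del-CFTR and a membrane-anchored enzyme acceptor, where more surface CFTR restores β-galactosidase activity measured by chemiluminescence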
Details: for EC50: EC50, F508del-CFTR cell surface expression, U2OS cells, 16h compound incubation, geomean values; for Emax: U2OS, in relation to Emax of corrector lumacaftor (=100%), arithmetic mean values

human F508del-CFTR, sequence (P13569 with tags, fused parts or gaps DEL508-508): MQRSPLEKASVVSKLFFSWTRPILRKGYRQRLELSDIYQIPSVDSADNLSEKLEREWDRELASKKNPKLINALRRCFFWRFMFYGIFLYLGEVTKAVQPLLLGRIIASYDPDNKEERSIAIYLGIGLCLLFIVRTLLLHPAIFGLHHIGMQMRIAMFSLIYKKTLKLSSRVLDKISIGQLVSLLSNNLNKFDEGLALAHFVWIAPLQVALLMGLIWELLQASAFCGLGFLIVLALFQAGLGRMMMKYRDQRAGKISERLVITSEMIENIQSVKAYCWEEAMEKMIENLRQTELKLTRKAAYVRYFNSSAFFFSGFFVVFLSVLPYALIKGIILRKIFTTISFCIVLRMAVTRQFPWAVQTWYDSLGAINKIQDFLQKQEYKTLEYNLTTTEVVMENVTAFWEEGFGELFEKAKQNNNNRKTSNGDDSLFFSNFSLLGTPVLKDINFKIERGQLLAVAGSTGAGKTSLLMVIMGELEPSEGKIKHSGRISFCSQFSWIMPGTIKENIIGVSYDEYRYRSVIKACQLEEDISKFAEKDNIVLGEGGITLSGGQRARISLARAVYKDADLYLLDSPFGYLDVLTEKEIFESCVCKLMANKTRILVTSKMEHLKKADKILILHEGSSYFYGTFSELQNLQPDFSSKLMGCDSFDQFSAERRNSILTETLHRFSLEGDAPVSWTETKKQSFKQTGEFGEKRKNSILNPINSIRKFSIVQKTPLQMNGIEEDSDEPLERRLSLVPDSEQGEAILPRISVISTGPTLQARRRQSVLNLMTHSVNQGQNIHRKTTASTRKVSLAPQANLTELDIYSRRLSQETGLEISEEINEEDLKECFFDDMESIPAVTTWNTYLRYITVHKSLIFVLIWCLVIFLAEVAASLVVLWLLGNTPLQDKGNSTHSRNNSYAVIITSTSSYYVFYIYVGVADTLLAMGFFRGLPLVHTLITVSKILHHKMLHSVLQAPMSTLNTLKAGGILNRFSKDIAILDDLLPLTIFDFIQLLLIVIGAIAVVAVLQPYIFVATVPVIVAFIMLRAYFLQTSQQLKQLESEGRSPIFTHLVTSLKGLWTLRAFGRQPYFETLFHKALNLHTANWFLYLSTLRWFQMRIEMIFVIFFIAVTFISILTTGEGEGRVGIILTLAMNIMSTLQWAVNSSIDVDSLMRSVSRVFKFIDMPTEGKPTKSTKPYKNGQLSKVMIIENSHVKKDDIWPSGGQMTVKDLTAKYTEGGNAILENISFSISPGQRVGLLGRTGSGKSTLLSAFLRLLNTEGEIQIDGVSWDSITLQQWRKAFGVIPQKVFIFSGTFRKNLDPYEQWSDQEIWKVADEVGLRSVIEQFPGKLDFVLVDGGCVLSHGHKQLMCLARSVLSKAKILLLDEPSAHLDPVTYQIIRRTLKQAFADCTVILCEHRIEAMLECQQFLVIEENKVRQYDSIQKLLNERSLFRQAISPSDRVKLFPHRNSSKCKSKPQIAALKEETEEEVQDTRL

Row | Compound | EC50 [µM] | Emax [%]
1 | COc1cccc(CCNC(=O)[C@@H]2CC(=O)N(C)[C@@H](CC(C)C)C(=O)N(C)[C@H](C)C(=O)N[C@H](Cc3ccccc3)COc3ccnc(OC)c3C(=O)N2)c1 [Example 768, (3R,6R,9S,13S)-3-benzyl-9-isobutyl-16-methoxy-N-(3-methoxyphenethyl)-6,7,10-trimethyl-5,8,11,15-tetraoxo-2,3,4,5,6,7,8,9,10,11,12,13,14,15-tetradecahydropyrido[3,4-p][1]oxa[4,7,10,14]tetraazacycloheptadecine-13-carboxamide] | 0.497 | 292
2 | COc1cc(CCNC(=O)[C@@H]2CC(=O)N(C)[C@@H](CC(C)C)C(=O)N3CCCC[C@H]3C(=O)N[C@H](Cc3ccccc3)COc3ccc4ncc(F)cc4c3C(=O)N2)on1 [Example 770, (9S,13S,19aS,22R)-22-benzyl-5-fluoro-13-isobutyl-N-(2-(3-methoxyisoxazol-5-yl)ethyl)-12-methyl-7,11,14,20-tetraoxo-7,8,9,10,11,12,13,14,17,18,19,19a,20,21,22,23-hexadecahydro-16H-pyrido[2′,1′:6,7][1]oxa[4,7,10,14]tetraazacycloheptadecino[16,17-f]quinoline-9-carboxamide] | 1 | 228
3 | CC[C@@H]1C(=O)N[C@H](Cc2ccccc2)COc2cc(C)nc(OC)c2C(=O)N[C@H](C(=O)NCCc2cc(C)no2)CC(=O)N(C)[C@@H](CC(C)C)C(=O)N1C [Example 773, (3R,6R,9S,13S)-3-benzyl-6-ethyl-9-isobutyl-16-methoxy-7,10,18-trimethyl-N-(2-(3-methylisoxazol-5-yl)ethyl)-5,8,11,15-tetraoxo-2,3,4,5,6,7,8,9,10,11,12,13,14,15-tetradecahydropyrido[3,4-p][1]oxa[4,7,10,14]tetraazacycloheptadecine-13-carboxamide] | 0.841 | 339
4 | CC[C@@H]1C(=O)N[C@H](Cc2ccccc2)COc2cc(C)nc(OC)c2C(=O)N[C@H](C(=O)NCCc2cccc(OC)c2)CC(=O)N(C)[C@@H](CC(C)C)C(=O)N1C [Example 774, (3R,6R,9S,13S)-3-benzyl-6-ethyl-9-isobutyl-16-methoxy-N-(3-methoxyphenethyl)-7,10,18-trimethyl-5,8,11,15-tetraoxo-2,3,4,5,6,7,8,9,10,11,12,13,14,15-tetradecahydropyrido[3,4-p][1]oxa[4,7,10,14]tetraazacycloheptadecine-13-carboxamide] | 0.751 | 345
5 | COc1nc(C)cc2c1C(=O)N[C@H](C(=O)NCCc1cc(C)no1)CC(=O)N(C)[C@@H](CC(C)C)C(=O)N(C)[C@H](CC(F)F)C(=O)N[C@H](Cc1ccccc1)CO2 [Example 775, (3R,6R,9S,13S)-3-benzyl-6-(2,2-difluoroethyl)-9-isobutyl-16-methoxy-7,10,18-trimethyl-N-(2-(3-methylisoxazol-5-yl)ethyl)-5,8,11,15-tetraoxo-2,3,4,5,6,7,8,9,10,11,12,13,14,15-tetradecahydropyrido[3,4-p][1]oxa[4,7,10,14]tetraazacycloheptadecine-13-carboxamide] | 0.875 | 359
6 | CC(C)C[C@H]1C(=O)N2CCCC[C@H]2C(=O)N[C@H](Cc2ccccc2)COc2ccc3ncc(F)cc3c2C(=O)N[C@H](C(=O)NCCc2cc(C3CC3)no2)CC(=O)N1C [Example 777, (9S,13S,19aS,22R)-22-benzyl-N-(2-(3-cyclopropylisoxazol-5-yl)ethyl)-5-fluoro-13-isobutyl-12-methyl-7,11,14,20-tetraoxo-7,8,9,10,11,12,13,14,17,18,19,19a,20,21,22,23-hexadecahydro-16H-pyrido[2′,1′:6,7][1]oxa[4,7,10,14]tetraazacycloheptadecino[16,17-f]quinoline-9-carboxamide] | 0.875 | 216

Results, then the compound that gave them:

Row | EC50 [µM] | Emax [%] | Compound
7 | 0.14 | 346 | COc1cc(CCNC(=O)[C@@H]2CC(=O)N(C)[C@@H](CC(C)C)C(=O)N3CCCC[C@@H]3C(=O)N[C@H](Cc3ccccc3)COc3ccc4ncc(F)cc4c3C(=O)N2)on1 [Example 769, (9S,13S,19aR,22R)-22-benzyl-5-fluoro-13-isobutyl-N-(2-(3-methoxyisoxazol-5-yl)ethyl)-12-methyl-7,11,14,20-tetraoxo-7,8,9,10,11,12,13,14,17,18,19,19a,20,21,22,23-hexadecahydro-16H-pyrido[2′,1′:6,7][1]oxa[4,7,10,14]tetraazacycloheptadecino[16,17-f]quinoline-9-carboxamide]
8 | 0.597 | 299 | COc1cc(CCNC(=O)[C@@H]2CC(=O)N(C)[C@@H](CC(C)C)C(=O)N(C)[C@H](C)C(=O)N[C@H](Cc3ccccc3)COc3ccnc(OC)c3C(=O)N2)on1 [Example 771, (3R,6R,9S,13S)-3-benzyl-9-isobutyl-16-methoxy-N-(2-(3-methoxyisoxazol-5-yl)ethyl)-6,7,10-trimethyl-5,8,11,15-tetraoxo-2,3,4,5,6,7,8,9,10,11,12,13,14,15-tetradecahydropyrido[3,4-p][1]oxa[4,7,10,14]tetraazacycloheptadecine-13-carboxamide]
9 | 0.514 | 343 | COc1cc(CCNC(=O)[C@@H]2CC(=O)N(C)[C@@H](CC(C)C)C(=O)N(C)[C@H](C)C(=O)N[C@H](Cc3ccccc3)COc3cc(C)nc(OC)c3C(=O)N2)on1 [Example 772, (3R,6R,9S,13S)-3-benzyl-9-isobutyl-16-methoxy-N-(2-(3-methoxyisoxazol-5-yl)ethyl)-6,7,10,18-tetramethyl-5,8,11,15-tetraoxo-2,3,4,5,6,7,8,9,10,11,12,13,14,15-tetradecahydropyrido[3,4-p][1]oxa[4,7,10,14]tetraazacycloheptadecine-13-carboxamide]
10 | 0.325 | 360 | COc1cc(CCNC(=O)[C@@H]2CC(=O)N(C)[C@@H](CC(C)C)C(=O)N(C)[C@H](CC(F)(F)F)C(=O)N[C@H](Cc3ccccc3)COc3ccnc(OC)c3C(=O)N2)on1 [Example 776, (3R,6R,9S,13S)-3-benzyl-9-isobutyl-16-methoxy-N-(2-(3-methoxyisoxazol-5-yl)ethyl)-7,10-dimethyl-5,8,11,15-tetraoxo-6-(2,2,2-trifluoroethyl)-2,3,4,5,6,7,8,9,10,11,12,13,14,15-tetradecahydropyrido[3,4-p][1]oxa[4,7,10,14]tetraazacycloheptadecine-13-carboxamide]
11 | 0.141 | 302 | CC(C)C[C@H]1C(=O)N2CCCC[C@@H]2C(=O)N[C@H](Cc2ccccc2)COc2ccc3ncc(F)cc3c2C(=O)N[C@H](C(=O)NCCn2ncc(C3CC3)n2)CC(=O)N1C [Example 778, (9S,13S,19aR,22R)-22-benzyl-N-(2-(4-cyclopropyl-2H-1,2,3-triazol-2-yl)ethyl)-5-fluoro-13-isobutyl-12-methyl-7,11,14,20-tetraoxo-7,8,9,10,11,12,13,14,17,18,19,19a,20,21,22,23-hexadecahydro-16H-pyrido[2′,11:6,7][1]oxa[4,7,10,14]tetraazacycloheptadecino[16,17-f]quinoline-9-carboxamide]
